Experimental data from patent US6737383B1, “Herbicidal oxadiazolidines” (priority 1999, dated 2004).

How the values were obtained:
itchgrass = experiment: Test D itchgrass; type: in vivo, Rottboellia exaltata; details: Postemergence, 0 to 100 scale
guineagrass = experiment: Test D guineagrass; type: in vivo, Panicum maximum; details: Postemergence, 0 to 100 scale
Spanishneedles = experiment: Test D Spanishneedles; type: in vivo, Bidens bipinnata; details: Postemergence, 0 to 100 scale
tall mallow = experiment: Test D tall mallow; type: in vivo, Malva sylvestris; details: Postemergence, 0 to 100 scale
Green foxtail [1] = experiment: Test D green foxtail; type: in vivo; details: Postemergence, 0 to 100 scale, 0 no injury, 100 complete control
bermuda-grass = experiment: Test D bermudagrass; type: in vivo, Cynodon dactylon; details: Postemergence, 0 to 100 scale
pitted morningglory = experiment: Test D pitted morningglory; type: in vivo, Ipomoea lacunosa; details: Postemergence, 0 to 100 scale
Green foxtail [2] = experiment: Test D green foxtail; type: in vivo; details: Postemergence, 0 to 100 scale, 0 no injury, 100 complete control; remark: listed apart in the source
Green foxtail [3] = experiment: Test D green foxtail; type: in vivo; details: Postemergence, 0 to 100 scale, 0 no injury, 100 complete control; remark: listed apart in the source
common groundsel = experiment: Test D common groundsel; type: in vivo, Senecio vulgaris; details: Postemergence, 0 to 100 scale
dallisgrass = experiment: Test D dallisgrass; type: in vivo, Paspalum dilatatum; details: Postemergence, 0 to 100 scale
[4] = Rate 16 g/ha, 0 no injury, 100 complete control
[5] = Rate 32 g/ha, 0 no injury, 100 complete control
[6] = Rate 64 g/ha, 0 no injury, 100 complete control
[7] = Rate 125 g/ha, 0 no injury, 100 complete control

CC(C)N(C(=O)n1oc(=O)n(C2CCC2)c1=O)c1ccc(Cl)cc1 [Compound 349]
Plant response rating, Itchgrass (itchgrass; [4]): 0 | Plant response rating, Itchgrass (itchgrass; [5]): 0 | Plant response rating, Itchgrass (itchgrass; [6]): 0 | Plant response rating, Itchgrass (itchgrass; [7]): 0 | Plant response rating, Itchgrass (itchgrass; Rate 250 g/ha): 0 | Plant response rating, Guineagrass (guineagrass; [4]): 0 | Plant response rating, Guineagrass (guineagrass; [5]): 0 | Guineagrass plant response rating (guineagrass; [6]): 0 | Plant response rating, Guineagrass (guineagrass; [6]): 20 | Plant response rating, Guineagrass (guineagrass; [7]): 0 | Plant response rating, Guineagrass (guineagrass; Rate 250 g/ha): 40 | Plant response rating, Spanishneedles (Spanishneedles; [4]): 0 | Plant response rating, Spanishneedles (Spanishneedles; [5]): 0 | Spanishneedles plant response rating (Spanishneedles; [6]): 0 | Spanishneedles plant response rating (Spanishneedles; [7]): 0 | Plant response rating, Spanishneedles (Spanishneedles; Rate 250 g/ha): 0 | Plant response rating, Tall Mallow (tall mallow; [4]): 0 | Plant response rating, Tall Mallow (tall mallow; [5]): 0 | Tall Mallow plant response rating (tall mallow; [6]): 0 | Tall Mallow plant response rating (tall mallow; [7]): 0 | Plant response rating, Tall Mallow (tall mallow; Rate 250 g/ha): 0 | Plant response rating, Green foxtail (Green foxtail [1]; Rate 16 g/ha): 0 | Plant response rating, Green foxtail (Green foxtail [1]; Rate 32 g/ha): 0 | Plant response rating, Bermudagrass (bermuda-grass; [4]): 0 | Plant response rating, Bermudagrass (bermuda-grass; [5]): 40 | Plant response rating, Bermudagrass (bermuda-grass; [6]): 70 | Plant response rating, Bermudagrass (bermuda-grass; [7]): 100 | Plant response rating, Bermudagrass (bermuda-grass; Rate 250 g/ha): 100 | Plant response rating, P. morninglory (pitted morningglory; [4]): 0 | Plant response rating, P. morninglory (pitted morningglory; [5]): 0 | Plant response rating, P. morninglory (pitted morningglory; [6]): 0 | Plant response rating, P. morninglory (pitted morningglory; [7]): 0 | Plant response rating, P. morninglory (pitted morningglory; Rate 250 g/ha): 0 | Green foxtail plant response rating (Green foxtail [2]; Rate 64 g/ha): 10 | Green foxtail plant response rating (Green foxtail [2]; Rate 125 g/ha): 80 | Plant response rating, Green foxtail (Green foxtail [3]; Rate 64 g/ha): 10 | Plant response rating, Green foxtail (Green foxtail [3]; Rate 125 g/ha): 80 | Plant response rating, Com. groundsel (common groundsel; [7]): 20 | Plant response rating, Com. groundsel (common groundsel; Rate 250 g/ha): 50 | Plant response rating, Dallisgrass (dallisgrass; [4]): 0 | Plant response rating, Dallisgrass (dallisgrass; [5]): 0 | Plant response rating, Dallisgrass (dallisgrass; [6]): 0 | Plant response rating, Dallisgrass (dallisgrass; [7]): 60 | Plant response rating, Dallisgrass (dallisgrass; Rate 250 g/ha): 90
